According to the METLIN SMRT retention time set (Domingo-Almenara et al. 2019):

Experiment: gradient 5% acetonitrile 3 min, to 50% in 2 min, to 85% in 15 min, held 3 min, 100 µL/min
Details: column: Zorbax Extend-C18 2.1 x 50 mm; eluents: water / acetonitrile, 0.1% formic acid
Procedure, shortened: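 In both positive and negative ionization mode, a quadrupole time-of-flight mass spectrometer coupled to HPLC analyzed pure standards run in mixtures of ~100 molecules. The Zorbax Extend-C18 column (2.1 × 50 mm, 1.8 μm) was operated at 100 μL/min with water and acetonitrile, each containing 0.1% formic acid. The dead volume was 40 μL and the dwell volume 900 μL. Retention time came from adduct peaks that were computationally picked and individually inspected by hand.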

RP-LC retention time [s] | SMILES
962 | Cn1nc(-c2nc(Cc3ccccc3)no2)c2c1CCN(C(=O)C1(c3ccccc3)CC1)C2
886 | COC(=O)c1sc2ccccc2c1NC(=O)c1cc(C)n(C)n1
674 | Cc1[nH]c(C(=O)N2CCC(CC(=O)NCCc3c[nH]c4ccccc34)CC2)c(C)c1C
985 | CCN(CC)C(=O)Cn1c(=O)c2cnc(-c3ccc(C)cc3)nc2n(C)c1=O
722 | CCOc1ccc(S(=O)(=O)Nc2cc(-c3cn4cccc(C)c4n3)ccc2C)cc1
657 | CC(C)N1CCC(F)(c2nc(-c3ccccc3)no2)CC1
877 | Cn1nc(-c2nnc(-c3ccccc3Cl)o2)c2c1CCN(C(=O)c1ccc(F)c(F)c1)C2
814 | Cc1c(Cl)cccc1N1C(=O)CN(S(C)(=O)=O)CC1(C)C(=O)NCc1ccc(F)cc1 (stereo not given)
988 | O=C(CN1C(=O)C2CCCCN2c2ccc(S(=O)(=O)N3CCCCC3)cc21)NCc1ccccc1 (stereo not given)
734 | O=C(NCCc1csc(C2CCN(C(=O)C3CCCCC3)CC2)n1)C1CC1
526 | CC(C)CN1CCn2cc(C(=O)N3CCN(c4ccccn4)CC3)nc2C1
1310 | Cc1ccc(-c2noc(Cc3nc(-c4ccc(F)cc4)cs3)n2)cc1
768 | COCCC1CCN(C(=O)COc2ccc(OC)cc2)CC1
1220 | CCOc1ccc(C2Cn3nnc(-c4nc(-c5cccc(F)c5)no4)c3CO2)cc1 (stereo not given)
836 | CCOc1ccc(C(=O)N2CCC3(CC2)NC(=O)c2cc(F)ccc2N3CC)cc1
676 | O=C(Nc1cnc(N2CCCC2)nc1)c1ccccc1
676 | O=C(Nc1ccc(Br)cc1F)C1CCN(C(=O)c2cc(-c3cccnc3)n[nH]2)CC1
845 | Cc1cccc(NC(=O)C2CCCN(c3ncnc4c3oc3ccccc34)C2)c1 (stereo not given)
665 | CCNc1cc(N2CCC(CCC(=O)Nc3ccc(OC)cc3OC)CC2)ncn1
885 | COC(=O)c1ccc2c(=O)n(-c3ccc4c(c3)OCO4)c(N3CCCC3)nc2c1
639 | COc1ccc(CN2CCC(NC(=O)C3(c4ccccc4)CC3)C2)cn1 (stereo not given)
660 | Cc1ccccc1-c1nc2cnccn2c1NCCC(=O)NCc1ccccc1F

RP-LC retention time [s] | SMILES
1160 | CCc1nc(-c2cc(S(=O)(=O)Nc3cc(C)ccc3C)c(C)s2)cs1
1330 | Cc1ccc(-c2nc(-c3ccc(-n4cccn4)nc3)no2)cc1
551 | O=C(NCCc1ccncc1)C1CN(C(=O)c2ccncc2)CC12CCCCC2 (stereo not given)
773 | CC1Oc2ccc(-c3csc(NC(=O)c4cccnc4)n3)cc2N(C)C1=O (stereo not given)
633 | O=C(NCC1CCCO1)c1cn(-c2ccc(NC(=O)C3CC3)cn2)cn1 (stereo not given)
943 | CN1C(=O)c2cc(S(=O)(=O)Nc3ccc(F)cc3Cl)ccc2Oc2cccnc21
906 | CCOC(=O)C1CCN(c2cc3c(cc2NC(=O)C2CCCCC2)n(C)c(=O)c(=O)n3C)CC1
843 | Cc1cccc(Nc2nc(C(=O)NCc3ccc(F)cc3F)cs2)n1
986 | Cc1nnc(-c2cccc(Cl)c2)nc1N1CCC(C)CC1
967 | CCn1c(=O)sc2cc(S(=O)(=O)N3CCC(C(=O)NC4CCC(C)CC4)CC3)ccc21 (stereo not given)
780 | COc1ccc(N2CCN(C3=NS(=O)(=O)c4ccccc43)CC2)cc1
576 | CC1(C(=O)N2CCN(Cc3ccc4c(c3)OCO4)CC2)CCCCC(=O)N1 (stereo not given)
748 | Cc1nc(-c2cn(Cc3cccc(F)c3)nn2)no1
894 | O=C(c1ccc2ccnc(N3CCN(c4ccc(Cl)cc4)CC3)c2c1)N1CCCCC1
809 | CC(CCc1ccccc1)NC(=O)C1CCN(S(=O)(=O)c2ccc3c(c2)CCCC(=O)N3)CC1 (stereo not given)
603 | Cc1ccc(C)c(NC(=O)c2cn3c(n2)CCCC3)c1
649 | CC(C)NC(=O)N1CCCN(S(=O)(=O)C(C)C)CC1
800 | Cc1cccc(CN2CC(=O)N(c3ccccc3)[C@@H]3CS(=O)(=O)C[C@@H]32)c1
657 | Cc1nc(C(N)=O)nc2ccccc12
564 | COC[C@@H]1CN(c2cnccn2)C[C@H]1C(=O)NCCn1cccn1
643 | CNC(=O)c1ccc(Nc2c(-c3ccc(OC)cc3)nc3cnccn23)cc1
628 | O=C(C1CCC1)N1CCC2(CC1)NCCc1c2[nH]c2ccccc12

RP-LC retention time [s] | SMILES
975 | COc1ccc(-c2cc3c(=O)n(Cc4nc(-c5ccccc5OC)oc4C)ccn3n2)cc1
984 | Cc1cc(Cl)ccc1N1C(=O)CN(S(C)(=O)=O)CC1(C)C(=O)NC1CCCCCC1 (stereo not given)
818 | Cc1noc(CNS(=O)(=O)c2ccc(OC(F)(F)F)cc2)n1
613 | Cc1ccc(NC(=O)N2CCC(CN3CCCC(C)C3)CC2)cc1 (stereo not given)
595 | COCc1cc(=O)n(CC(=O)NCc2ccccc2)c(N)n1
753 | Cc1nc([N+](=O)[O-])cn1-c1nc2ccccn2c1[N+](=O)[O-]
714 | Cc1nc(-c2noc(-c3cccnc3)n2)cn1CC(=O)N1CCc2ccccc21
812 | CCc1cc(=O)n(CC(=O)NCc2ccc(F)cc2F)c(N)n1
565 | CC(C)N1CCN(C(=O)CN2CCN(Cc3ccccc3)C2=O)CC1
634 | CNC(=O)C1CCCN(c2nc3ncn(CC(=O)Nc4ccccc4F)c(=O)c3s2)C1 (stereo not given)
1000 | CC1CCN(C(=O)C2=NN(Cc3ccc(F)cc3)c3ccccc3S2(=O)=O)CC1
557 | CN1CCN(c2ncncc2N2CCC(C(=O)N3CCCCC3)CC2)CC1
1130 | Cc1ccc(N2CC(c3nc(-c4ccccc4C)no3)CC2=O)cc1F (stereo not given)
924 | CCC1Oc2ccc(S(=O)(=O)N3CCC(C(=O)N(CC)Cc4ccccc4)CC3)cc2NC1=O (stereo not given)
972 | COC(=O)c1sc2ncccc2c1NC(=O)c1cccc(C)c1
787 | Cc1noc(-c2cccc(OC3CN(C(=O)c4ccoc4)C3)c2)n1
594 | COc1ccc(Cl)cc1S(=O)(=O)N1CCC(C(=O)NCc2ccccn2)CC1
574 | CN1C(=O)[C@H]2CN(Cc3ccc(C#N)cc3)C[C@H]2C1=O
614 | CC(=O)N1CCN(c2nc3c(s2)CC(C(=O)N2CCCCCC2)CC3)CC1 (stereo not given)
1020 | CCCn1c(=O)sc2cc(S(=O)(=O)N3CCC(C(=O)N4CCc5ccccc54)CC3)ccc21
818 | c1ccc(-c2cnn3cc(-c4ccc(OCCN5CCOCC5)cc4)cnc23)cc1
870 | Cc1ccc(NC(=O)C2CCCN(c3ncnc4c3nc3n4CCCCC3)C2)cc1C (stereo not given)

RP-LC retention time [s] | SMILES
779 | CSc1ccc(-c2nc3ccccn3c2Nc2ccc(Cl)cc2)cc1
838 | CCNc1nc(C)cc(N2CCN(S(=O)(=O)c3cc(C(C)C)ccc3C)CC2)n1
928 | Cc1ccc(NC(=O)C(C)C2CCN(C(=O)Nc3ccc(F)cc3)CC2)cc1C (stereo not given)
649 | CNC(=O)C1CCCN(c2nc3ncn(CC(=O)Nc4ccccc4C(=O)OC)c(=O)c3s2)C1 (stereo not given)
946 | CCOC(=O)c1[nH]c(C)c(CN(Cc2ccccc2)C(=O)c2ccco2)c1C
553 | CN(CCc1ccccn1)C(=O)C1CCN(c2cnn(C)c(=O)c2)CC1
828 | CCc1ccccc1NC(=O)c1ncn2c1C(=O)N(C1CC1)C(C)(C(=O)NC1CCCC1)C2 (stereo not given)
560 | CN(C)CCNC(=O)c1nc(N2CCSCC2)c2cnn(C)c2n1
602 | CN(CCCNC(=O)C1CCc2nc(N3CCOCC3)ncc2C1)c1ccccc1 (stereo not given)
866 | COc1ccc(S(=O)(=O)NCCc2c[nH]c3ccc(F)cc23)cc1
618 | CCN1CCN(C(=O)c2ccc3ccnc(N4CCN(c5ccc(Cl)cc5)CC4)c3c2)CC1
569 | O=C(Nc1ccccc1)N1CC(n2ccnc2)C1
879 | Cc1noc2nc(C)n(CC(=O)Nc3cccc(C(F)(F)F)c3)c(=O)c12
1140 | COc1ccc(-c2nc(C3CC(=O)N(c4ccc(Cl)cc4)C3)no2)c(C)c1 (stereo not given)
651 | Cc1cc(C)c2c(N3CCOCC3)nc(C(=O)NCc3ccc(F)cc3F)nc2n1
667 | O=C(NCC1CCN(C(=O)c2ccccc2F)CC1)c1ccccn1
620 | O=C(c1ccc2c(c1)OCO2)N1CCN(c2nc(CN3CCCCC3)cs2)CC1
567 | Cc1nc([C@H]2CCN(Cc3cc(Cl)ccc3F)C[C@H]2N(C)C)n[nH]1
598 | CCN1CCN(C(=O)c2c(C)sc3ccn(CC(C)C)c(=O)c23)CC1
805 | Cn1nc(C(=O)N2CCCN(c3cc(-c4ccc(Cl)cc4)[nH]n3)CC2)c2ccccc21
736 | CCc1nncn1C1CCN(S(=O)(=O)c2ccc(OC)c(Cl)c2)CC1
751 | CCCNC(=O)N1CCc2nc(-c3ccccc3)ncc2C1

SMILES | RP-LC retention time [s]
O=C1C2CCCN2C(c2ccncc2)N1c1cccc(Cl)c1 (stereo not given) | 587
O=C1NCN(c2ccccc2)C12CCN(CC1COc3ccccc3O1)CC2 (stereo not given) | 736
